Source: US20130317067A1, “PESTICIDAL MIXTURES WITH IMPROVED PROPERTIES” (BAYER INTELLECTUAL PROPERTY GMBH, priority 2010, published 2013)

Legend:
Type in all cases: in vivo
[1] = system: cotton aphid (Aphis gossypii); assay: Aphis gossypii test (cotton seed treatment)
Experimental: (§1) The expected efficacy of a given combination of two compounds is calculated as follows (see Colby, S. R., “Calculating Synergistic and antagonistic Responses of Herbicide Combinations”, Weeds 15, pp. 20-22, 1967):
(§2) If • X is the efficacy expressed in % mortality of the untreated control for test compound A at a concentration of m ppm respectively m g/ha, • Y is the efficacy expressed in % mortality of the untreated control for test compound B at a concentration of n ppm respectively n g/ha, • E is the efficacy expressed in % mortality of the untreated control using the mixture of A and B at m and n ppm respectively m and n g/ha, then is
(§3) If the observed insecticidal efficacy of the combination is higher than the one calculated as “E”, then the combination of the two compounds is more than additive, i.e., there is a synergistic effect.
(§4) If not mentioned otherwise, the crystalline modification I of 4-{[(6-chloropyrid-3-yl)methyl](methyl)amino}furan-2(5H)-one has been prepared as a water-dispersible or water-soluble powder in an active ingredient concentration of 70% (wt/wt) involving the following formulation auxiliaries, whereas the amount of auxiliaries sums up to 100 wt. %:
(§5) The auxiliaries were mixed with the appropriate amount of the crystalline modification I of 4-{[(6-chloropyrid-3-yl)methyl](methyl)amino}furan-2(5H)-one. There is no water or solvent added. To enable the dry mixture to stick on the seed, the seed were treated with a minimal amount of water, namely […] for 2 g canola seeds, and 800 μl für 20 g cotton seeds
(§6) Cotton seeds were treated with the compounds or mixtures and sown. 10 days after germination the plants were infested with a mixed population of the cotton aphid (Aphis gossypii). After the specified period of time, the mortality in % is determined. 100% means that all the aphids have been killed; 0% means that none of the aphids have been killed.

[2] = system: green peach aphid (Myzus persicae); assay: Myzus persicae test (oil seed rape seed treatment)
Experimental: as §1, §2, §3, §4, §5
as §6, with “Seeds of Oil seed rape were” for “Cotton seeds were”, “sown. Ca. 35” for “sown. 10”, “the green peach” for “the cotton”, “aphid (Myzus persicae).” for “aphid (Aphis gossypii).”

[3] = system: larvae of the mustard beetle (Phaedon cochleariae); assay: Phaedon cochleariae larvae test (oil seed rape seed treatment)
Experimental: as §1, §2, §3, §4, §5
Seeds of Oil seed rape were treated with the compounds or mixtures and sown. Ca. 35 days after germination the plants were infested with a larvae of the mustard beetle (Phaedon cochleariae). After the specified period of time, the mortality in % is determined. 100% means that all the beetle larvae have been killed; 0% means that none of the beetle larvae have been killed.

SMILES: CON=C(C(=O)OC)c1ccccc1CON=C(C)c1cccc(C(F)(F)F)c1 [Trifloxystrobin]
- Kill rate [in % after 1 day] ([1]; 0.5 mg ai/grain): 0%

SMILES: CCO[PH](=O)O [Fosetyl-Al]
- Kill rate [in % after 2 days] ([2]; 1 mg ai/grain): 0%

SMILES: N#Cc1c[nH]cc1-c1cccc2c1OC(F)(F)O2 [Fluodioxonil, Fludioxonil]
- Kill rate [in % after 4 days] ([3]; 05 mg ai/grain (so in the source)): 0%

SMILES: CN(Cc1ccc(Cl)nc1)C1=CC(=O)OC1 [4-{[(6-chloropyrid-3-yl)methyl](methyl)amino}furan-2(5H)-one]
- Kill rate [in % after 2 days] ([1]; 0.01 mg ai/grain): 63%
- Kill rate [in % after 1 day] ([1]; 0.025 mg ai/grain): 0%
- Kill rate [in % after 2 days] ([1]; 0.025 mg ai/grain): 80%
- Kill rate [in % after 2 days] ([2]; 0.01 mg ai/grain): 10%
- Kill rate [in % after 7 days] ([2]; 0.01 mg ai/grain): 0%
- Kill rate [in % after 3 days] ([2]; 0.025 mg ai/grain): 0%
- Kill rate [in % after 4 days] ([3]; 0.01 mg ai/grain): 0%
- Kill rate [in % after 5 days] ([3]; 0.025 mg ai/grain): 5.56%

SMILES: Cn1cc(C(=O)Nc2ccc(F)cc2-c2ccc(Cl)c(Cl)c2)c(C(F)F)n1 [Bixafen]
- Kill rate [in % after 2 days] ([1]; 0.5 mg ai/grain): 0%

SMILES: CC1(C(=O)Nc2ccc(O)c(Cl)c2Cl)CCCCC1 [Fenhexamid]
- Kill rate [in % after 2 days] ([1]; 0.5 mg ai/grain): 0%

SMILES: O=C(NCc1ncc(C(F)(F)F)cc1Cl)c1c(Cl)cccc1Cl [Fluopicolide]
- Kill rate [in % after 5 days] ([3]; 1 mg ai/grain): 0%

SMILES: CCC1(C(=O)N[C@H](C)c2ccc(Cl)cc2)C(C)C1(Cl)Cl (some centres unmarked) [Carpropamid]
- Kill rate [in % after 1 day] ([1]; 0.5 mg ai/grain): 0%

SMILES: CSC1=N[C@@](C)(c2ccccc2)C(=O)N1Nc1ccccc1 [Fenamidone]
- Kill rate [in % after 3 days] ([2]; 0.5 mg ai/grain): 0%
- Kill rate [in % after 7 days] ([2]; 0.5 mg ai/grain): 0%
